# Assay results taken from patent US9526720B2, “Modulators of hepatic lipoprotein metabolism” (The Broad Institute, Inc., priority 2012, dated 2016).
# Experiments:
# [1] = system: PCSK9; assay: qPCR PCSK9 expression in HepG2 cells; type: cell-based, human; conditions: Homo sapiens, HepG2, 24 h; read-out: qPCR 24 Hr (EC50 uM) PCSK9 down-regulation
# Description: (§1) In the primary screen, HepG2 cells were plated in 384-well plates at 2000 cells per well and incubated for 20 hours with each compound in duplicate at 10 microM concentration. Then RNA was isolated, reverse-transcribed to cDNA, and stored at −80° C. Expression levels of TRIB1 and other target genes, such as SORT1 and PCSK9, were determined by quantitative PCR. Relative gene expression level was normalized to expression of the housekeeping gene, GAPDH. A “hit” was defined as those compounds that caused a greater than 2-fold increase in relative target gene expression when normalized to GAPDH expression, compared to DMSO-treated control. Using these criteria, 130 hits were identified for TRIB1 (0.8% hit rate).
# (§2) Further analysis of the expression levels of various proteins in the cholesterol and triglyceride biosynthetic pathways in response to TRIB1 inducer treatment was performed. In particular, transcript levels of additional lipoprotein metabolism pathway proteins SCAP, SREBF1, SREBF2, HMGCR, HMGCS, SCD1, FASN and MTTP were assessed by qPCR, along with TRIB1, LDLR, and PCSK9. The gene expression profile for the same subset of genes was also assessed after treatment with the statin atorvastatin (Lipitor), commonly used in therapy for hypercholesterolemia and other cardiovascular diseases.
# (§3) The kinetics of the modulation of TRIB1, LDLR, PCSK9 and MTTP gene expression after treatment by select TRIB1 inducer compounds was monitored by qPCR analysis (FIG. 4). RNA was extracted from cells at various timepoints over 28 hours of treatment (0, 2, 4, 6, 8, 24, 28 hours). Specifically, compounds 12a and 14a induced transcriptional responses over time similar to those produced by berberine, a plant alkaloid used in Chinese medicine. […] Both compound 12a and compound 14a induce TRIB1 and LDLR and repress PCSK9 and MTTP expression with similar kinetics and similar fold change as berberine Importantly, both compounds induce these gene expression changes at much lower concentrations than berberine. […] This increased potency indicates the potential therapeutic efficacy of such compounds for treatment of cardiovascular diseases, particularly hypercholesterolemia and related conditions.
# [2] = system: LDLR; assay: ELISA of LDLR protein in HepG2 cells; type: cell-based, human; conditions: Homo sapiens, HepG2, 24 h; read-out: ELISA 24 Hr (EC50 uM) LDLR increase
# Description: (§4) Additional secondary assays were performed in HepG2 cells to further characterize the cellular response to treatment with select confirmed TRIB1 inducer hits. The results of the ELISA, CTG, and qPCR secondary assays are summarized in Table B. For all secondary assays, the experiments were performed using powders of freshly purified compounds.
# (§5) To further characterize the relationship of TRIB1 induction and PCSK9 reduction, ELISAs were performed to measure the levels of secreted ApoB, PCSK9, and LDLR. […] As predicted treatment with TRIB1 inducer hits caused a decrease in ApoB levels detected by ELISA. In parallel effort, 3200 BIOA and NATP compounds were screened for PCSK9 expression inhibitors. Hits were defined as inducing greater than 3-fold downregulation of PCSK9, and 3.8% of the screened compounds were confirmed as hits. […] In further experiments, a strong correlation was confirmed between TRIB1 induction and PCSK9 repression in DOS Collection hits. ELISA analysis confirmed that treatment with TRIB1 inducers reduced the PCSK9 protein levels. LDLR protein levels were also analyzed by ELISA to determine whether compounds that modulate both TRIB1 and PCSK9 had any effect on LDLR protein levels.
# [3] = system: ApoB; assay: ELISA of secreted ApoB in HepG2 cells; type: cell-based, human; design: key to ELISA 24 Hr (EC50 uM) ApoB decrease: A: EC50 between 0.0000001 μM≦0.5 μM; B: EC50 between 0.51 μM≦1.0 μM; EC50 between 1.1 μM≦2.0 μM; D: EC50 between 2.1 μM≦5.0 μM; EC50 between 5.1 μM≦10 μM; F: EC50>10 μM; NC: No change; conditions: for EC50: Homo sapiens, HepG2, 24 h, read-out: ELISA 24 Hr (EC50 uM) ApoB decrease
# Description: as §4, §5
# [4] = system: PCSK9; assay: ELISA of secreted PCSK9 protein in HepG2 cells; type: cell-based, human; conditions: Homo sapiens, HepG2, 24 h; read-out: ELISA 24 Hr (EC50 uM) PCSK9 decrease
# Description: as §4, §5
# [5] = system: LDLR; assay: qPCR LDLR expression in HepG2 cells; type: cell-based, human; conditions: Homo sapiens, HepG2, 6 h; read-out: qPCR 6Hr (EC50 uM) LDLR up-regulation
# Description: as §1, §2, §3
# [6] = system: TRIB1; assay: qPCR TRIB1 expression in HepG2 cells; type: cell-based; conditions: Homo sapiens, HepG2, 6 h; read-out: qPCR 6Hr (EC50 uM) TRIB1 up-regulation
smiles,measurement,setting,value
CN(C)C(=O)c1ccc(-c2ccc([C@H]3[C@@H](C#N)N(C(=O)C4CCC4)[C@H]3CO)cc2)cc1 [Compound 18a],EC50,[1],0.51 to 1 µM
same,EC50,[2],2.1 to 5 µM
same,EC50,[3],0.51 to 1 µM
same,EC50,[4],0.51 to 1 µM
same,EC50,[5],1.1 to 2 µM
same,EC50,[6],1.1 to 2 µM
CN(C)C(=O)c1ccc(-c2ccc([C@H]3[C@@H](C#N)N(C(=O)C4CCCC4)[C@H]3CO)cc2)cc1 [Compound 19a],EC50,[1],1.1 to 2 µM
same,EC50,[2],2.1 to 5 µM
same,EC50,[3],2.1 to 5 µM
same,EC50,[4],1.1 to 2 µM
same,EC50,[5],1.1 to 2 µM
same,EC50,[6],2.1 to 5 µM
N#C[C@H]1[C@H](c2ccc(-c3cccc(F)c3)cc2)[C@@H](CO)N1C(=O)NC1CCCC1 [Compound 20a],EC50,[1],0.51 to 1 µM
same,EC50,[2],1.1 to 2 µM
same,EC50,[3],> 10 µM
same,EC50,[4],1.1 to 2 µM
same,EC50,[5],2.1 to 5 µM
same,EC50,[6],2.1 to 5 µM
N#C[C@@H]1[C@H](c2ccc(-c3ccccc3F)cc2)[C@H](CO)N1C(=O)C1CCC1 [Compound 21a],EC50,[1],0.51 to 1 µM
same,EC50,[2],5.1 to 10 µM
same,EC50,[3],> 10 µM
same,EC50,[4],1.1 to 2 µM
same,EC50,[5],5.1 to 10 µM
same,EC50,[6],2.1 to 5 µM
CN(C)C(=O)c1ccc(-c2ccc([C@H]3[C@@H](C#N)N(C(=O)C4CCC4)[C@@H]3CO)cc2)cc1 [Compound 22a],EC50,[1],1.1 to 2 µM
same,EC50,[2],1.1 to 2 µM
same,ELISA 24 Hr (EC50 uM) ApoB decrease,[3],NC
same,EC50,[4],2.1 to 5 µM
same,EC50,[5],2.1 to 5 µM
same,EC50,[6],2.1 to 5 µM
CCCNC(=O)N1[C@H](C#N)[C@H](c2ccc(-c3cccnc3)cc2)[C@@H]1CO [Compound 23a],EC50,[1],1.1 to 2 µM
same,EC50,[2],0.51 to 1 µM
same,ELISA 24 Hr (EC50 uM) ApoB decrease,[3],NC
same,EC50,[4],1.1 to 2 µM
same,EC50,[5],2.1 to 5 µM
same,EC50,[6],2.1 to 5 µM
N#C[C@@H]1[C@H](c2ccc(-c3cccc(F)c3)cc2)[C@@H](CO)N1C(=O)c1cccnc1 [Compound 24a],EC50,[2],5.1 to 10 µM
same,ELISA 24 Hr (EC50 uM) ApoB decrease,[3],NC
same,EC50,[4],2.1 to 5 µM
same,EC50,[5],2.1 to 5 µM
same,EC50,[6],5.1 to 10 µM
